Experimental data taken from patent publication US20250002854A1, “METHODS OF GENERATING POPULATIONS OF TUMOUR-INFILTRATING T CELLS” (LYTIX BIOPHARMA AS, priority 2016, published 2025).
Square brackets hold non-standard residues; d marks the D form. Ends that are not written are not given here. Dip = N[C@H](C(=O)O)C(c1ccccc1)c1ccccc1

Legend:
B16F1 cells = test: LysoTracker DND-26, flow cytometry and confocal microscopy; type: cell-based, murine; conditions: 27 μM, 60 minutes
Experimental: Flow cytometry: B16F1 cells were seeded in 6-well plates and allowed to adhere overnight. […] Untreated cells were used as a control. Cells were trypsinized and investigated on a FACS Calibur Flow cytometer, and the results were processed using FlowJo Software (Tree Star, Inc., Ashland, OR, USA). PI was utilized in some experiments to gate away cells with compromised plasma membrane.
Confocal microscopy: B16F1 cells were seeded in 8-well plates (Nunc) at 1×10^4 cells/well and allowed to adhere overnight. Next, cells were treated with 27 μM of LTX-401 for 60 minutes and labelled with LysoTracker DND-26 for 5 minutes and with Hoecsht33342 for nuclear staining. Cells were immediately investigated on a Zeiss Confocal microscope with a controlled temperature and atmosphere.

MCA205 sarcoma = conditions: mouse, in vivo
Experimental: Mice were subcutaneously injected into the right flank with 1×10^6 MCA205 cells. Tumour cell lines were inoculated into C57BL/6 mice. Tumour surfaces (longest dimension×perpendicular dimension) were routinely monitored by caliper. When tumours reached a size of 20-25 mm^2 (day 0), mice were administered intratumourally with three consecutive daily injections of 300 μg LTX-315. In T-cell depletion experiments (FIG. 24), anti-CD4 and anti-CD8 monoclonal antibodies (mAbs) (GK1.5 and 53-6.72, respectively; 200 μg per mouse) or their isotype controls (LTF-2 and 2A3, respectively) were injected intraperitoneally 3 and 4 days before the first LTX-315 injection and continued every other 7 days. All mAbs for in vivo use were obtained from BioXcell (West Lebanon, NH, USA), using the recommended isotype control mAbs.
Tumours and spleens were harvested 7 days after the first injection of LTX-315. Excised tumours were cut into small pieces and digested in RPMI-1640 medium containing Liberase at 25 μg/ml (Roche, Boulogne-Billancourt, France) and DNase1 at 150 UI/ml (Roche) for 30 min at 37° C. The mixture was subsequently passaged through a 100 μm cell strainer. […] All cells were analysed on a CyAn ADP (Beckman Coulter, Marseille, France) flow cytometer with FlowJo (Tree Star, Ashland, OR) software.

[1] = test system: Human osteosarcoma U2OS cells; test: Transmission electron microscopy of U2OS cells after LTX-315; type: cell-based
Experimental: Cytoplasmic membrane disintegration was carried out as described in FORVEILLE S. et al., Cell Cycle 2015, 14: 3506-12.
Human osteosarcoma U2OS cells were cultured in Glutamax-containing DMEM medium supplemented with 10% fetal calf serum (FCS), and […] HEPES buffer. Cells were grown at 37° C. in a humidified incubator under a 5% CO2 atmosphere.
For ultrastructural studies, human osteosarcoma U2OS cells were fixed in 1.6% glutaraldehyde (v/v in 0.1 M phosphate buffer) for 1 h, collected by scraping, centrifuged and the pellet was post-fixed 1% osmium tetroxide (w/v in 0.1 M phosphate buffer). Following dehydration through a graded ethanol series, cells were embedded in Epon™ 812 and ultrathin sections were stained with standard uranyl acetate and lead citrate. Images were taken using a Tecnai 12 electron microscope (FEI, Eindhoven, the Netherlands).

Compound | LysoTracker DND-26 signal (B16F1 cells) | cytotoxic CD4+ TILs in tumour beds (IFNγ+, IL-17+, IFNγ+ IL-17+) (MCA205 sarcoma) | cytotoxic CD8+ TILs in tumour beds (IFNγ+, TNFα+, IFNγ+ TNFα+) (MCA205 sarcoma) | cell morphology after administration (TEM) [1]
Cl.Cl.NCCNC(=O)C(CN)(CCCc1ccccc1)CCCc1ccccc1 [LTX-401] | induced a decreased signal | – | – | –
K-K-W-W-K-K-W-Dip-K-NH2 (KKWWKKW[Dip]K-NH2) [LTX-315] | – | markedly increased | markedly increased | necrotic morphology with disintegration of cytoplasmic membranes
